In brackets after ≈: the same amount, converted by molar mass. Read-outs that look alike come from different tables or passages of the source. One block for each molecule: values may come before it.
Key:
[1] = Excerpt: The completeness of the amorphization process can be checked by the absence in the Differential Scanning Calorimetry thermogram of the resulting drug-polymer system of the transition peak relative to the solid/liquid endothermic transition of the crystalline drug. The absence of the transition peak means that the enthalpy of melting is practically zero.
This transformation is indicated by the shifting of the original endothermic peak of the DSC thermogram to lower temperatures, which leads to higher dissolution rates and bioavailability.
Differential Scanning Calorimetry Data

[2] = Solubility of griseofulvin systems, pH 7.4 buffer, 37° C.
Experimental: (§1) The flasks were placed in a shaking thermostated apparatus and aliquots of sample solutions were taken by filtering through a Millipore membrane.
The griseofulvin concentrations were determined by spectrophotometry (λ=294 nm).

[3] = Solubility of indomethacin systems, pH 6.8 buffer, 37° C.; type: physicochemical
Experimental: The indomethacin concentrations were determined by spectrophotometry (λ=317 nm).

[4] = buffer, pH 2
Experimental: as §1
The indoprofen concentrations were determined by spectrophotometry (λ=280 nm).

[5] = Solubility of MAP systems, pH 5.5 phosphate buffer, 37° C.; type: physicochemical
Experimental: The flasks were placed in a shaking thermostated apparatus and aliquots of sample solutions were taken by filtering through a Millipore membrane. The concentration of MAP in the filtered aliquot was determined both by spectrophotometry (SP 8-100, Pye Unicam) after dilution with methanol, λ=247 nm, and by HPLC (column: Spherisorb S30 D52, Phase Sep.; mobile phase acetonitrile/water 70/30 v/v; flow rate 1 ml/min; U.V. detection, λ=242 nm), after dilution with acetonitrile.

Melting Point [1]: 218.8 °C
% Residual of Original Heat of Fusion ([1]; griseofulvin systems, Table 3): 100%
Heat of Fusion ([1]; griseofulvin systems, Table 3): 119.22 J/g
Solubility (griseofulvin concentration) ([2]; 5 min): 9.1 µg/mL (≈ 25.8 µM)
Solubility (griseofulvin concentration) ([2]; 15 min): 11.0 µg/mL (≈ 31.2 µM)
Solubility (griseofulvin concentration) ([2]; 1 hr): 10.9 µg/mL (≈ 30.9 µM)
Solubility (griseofulvin concentration) ([2]; 3 hrs): 11.3 µg/mL (≈ 32 µM)
Solubility (griseofulvin concentration) ([2]; 24 hrs): 14.9 µg/mL (≈ 42.2 µM)
Compound: COC1=CC(=O)C[C@@H](C)[C@]12Oc1c(Cl)c(OC)cc(OC)c1C2=O [Pure crystalline Griseofulvin, griseofulvin]

Compound: COc1ccc2c(c1)c(CC(=O)O)c(C)n2C(=O)c1ccc(Cl)cc1 [Pure crystalline Indomethacin, indomethacin]
Heat of Fusion ([1]; indomethacin systems, Table 4): 110.8 J/g
Melting Point ([1]; indomethacin systems, Table 4): 160.2 °C
Solubility (indomethacin concentration) ([3]; 5 min): 230.2 µg/mL (≈ 643 µM)
Solubility (indomethacin concentration) ([3]; 15 min): 358.2 µg/mL (≈ 1000 µM)
Solubility (indomethacin concentration) ([3]; 1 hr): 482.1 µg/mL (≈ 1350 µM)
Solubility (indomethacin concentration) ([3]; 3 hrs): 502.8 µg/mL (≈ 1410 µM)
Solubility (indomethacin concentration) ([3]; 24 hrs): 502.0 µg/mL (≈ 1400 µM)

Melting Point [1]: 212-215 °C
% Residual of Original Heat of Fusion ([1]; indoprofen systems, Table 2): 100.0%
Heat of Fusion ([1]; indoprofen systems, Table 2): 134.6 J/g
Solubility (indoprofen concentration) ([4]; 5 min): 1.6 µg/mL (≈ 5.69 µM)
Solubility (indoprofen concentration) ([4]; 0.25 h): 3.0 µg/mL (≈ 10.7 µM)
Solubility (indoprofen concentration) ([4]; 1 h): 4.8 µg/mL (≈ 17.1 µM)
Solubility (indoprofen concentration) ([4]; 24 h): 10.3 µg/mL (≈ 36.6 µM)
Compound: CC(C(=O)O)c1ccc(N2Cc3ccccc3C2=O)cc1 (stereo not drawn) [Pure crystalline Indoprofen, indoprofen]

Melting Point [1]: 205-206 °C
melting point [1]: 205.6 °
% Residual of Original Heat of Fusion ([1]; MAP systems, Table 1): 100.0%
Heat of Fusion ([1]; MAP systems, Table 1): 88.0 J/g
Solubility (MAP dissolved) ([5]; 5 min): < 0.04 µg/mL
Solubility (MAP dissolved) ([5]; 15 min): 0.32 µg/mL
Solubility (MAP dissolved) ([5]; 1 hr): 0.68 µg/mL
Solubility (MAP dissolved) ([5]; 6 hrs): 1.00 µg/mL
Compound: CC(=O)O[C@]1(C(C)=O)CC[C@H]2[C@@H]3C[C@H](C)C4=CC(=O)CC[C@]4(C)[C@H]3CC[C@@]21C [Pure crystalline MAP, medroxyprogesterone acetate]

From US4639370A, “Pharmaceutical composition” (Farmitalia Carlo Erba S.p.A., priority 1984, dated 1987)
